# “Also recorded” adds a separate entry of the source. Like-named read-outs stand apart in the source and are kept apart here.
# Experiments:
# C57Bl/6J mice [1] = assay: Inhibition of HU210-induced hypomotility; type: in vivo; settings: HU210 30 μg/kg IP 30 min after
# Text: (§1) Locomotor activity: Locomotor activity was quantified by the number of disruptions of infrared XYZ beam arrays with a beam spacing of 0.25 cm in the Promethion High-Definition Behavioral Phenotyping System (Sable Instruments, Inc., Las Vegas, NV, USA).
# (§2) The ability of BNS822 and BNS808 to induce CNS-mediated hyperactivity was further evaluated in a mouse model, using rimonabant (a brain penetrant CB1 receptor blocker) as a positive control. Mice (wild-type male C57Bl/6J) received a single dose of rimonabant (10 mg/kg IP), BNS822 (20 mg/kg PO) BNS 808 (1, 10 mg/kg PO) or vehicle; ambulatory activity was measured by the Promethion Metabolic System (Sable Instruments, Inc). In the same experimental scheme, BNS822, BNS808 and rimonabant were further studied regarding the potential to inhibit the hypomotility-induced by a CB1 receptor agonist, HU210, after a single dose of rimonabant (10 mg/kg IP), BNS822 (20 mg/kg PO) BNS808 (1, 10 mg/kg PO) or vehicle and a single dose of HU210 (30 μg/kg IP) 30 min after.
# HepG2 Cells = assay: Cell Viability Assay in HepG2 Cells at 72 h; type: cell-based, human; settings: Homo sapiens, HepG2, 72 h
# Protocol: The liver plays a central role in transforming and clearing chemicals, and therefore is susceptible to toxicity of these agents. BNS808, BNS822 and other selected compounds were tested in the HepG2 assay using […] to evaluate cytotoxicity.
# C57Bl/6J mice [2] = assay: CNS-mediated hyperactivity, locomotor activity (Promethion); type: in vivo; settings: wild-type male C57Bl/6J mice
# Text: as §1, §2
# [3] = test system: Salmonella typhimurium (TA98, TA100); settings: for increase in reversion over the negative control: TA98 and TA100, with and without S9
# [4] = Tissue distribution: brain, plasma and liver levels after oral dosing; type: in vivo, C57BL/6J mice
# Protocol: Tissue distribution and pharmacokinetics: Tissue levels of antagonist: 3 male C57BL/6J mice (7-9 weeks, PO group) were used in this study. Mice were fasted prior to administration of test article and had access to food 4 hours post dosing. Appropriate amount of test article was accurately weighted and mixed with the appropriate volume of vehicle to get a clear oral solution. The formulation was prepared on the day of dosing, and mice were dosed via oral gavage up to 4 hr after formulation was prepared. After 1 hour, mice were scarified and about 200 μL blood was collected from cardiac puncture followed by plasma preparation. Brain and liver were removed and further processed. Dose formulation and sample analysis was performed by LC-MS/MS method.
# The peripherality of selected BB8 conjugates (BNS) was evaluated in vivo measuring their respective brain, plasma, and liver levels 1 hr following 10 mg/kg oral administration.
# P-gp (MDR1) = assay: MDR1-MDCK II cell permeation assay (bi-directional permeability, P-gp efflux); type: in vitro ADME; settings: dog, MDCK-MDR1, pH 7.4; 2 μM, A to B, 2.5 hours
# How it was run: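 Compounds at 2 μM (DMSO <1%) in HBSS with 10 mM Hepes, pH 7.4, were applied apically or basolaterally to MDR1-MDCKII monolayers. A-to-B and B-to-A transport was run in duplicate with or without 10 μM GF120918 for 2.5 h at 37° C, 5% CO2. Compounds were quantified by LC-MS/MS, and efflux ratios were determined.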
# CB1 receptor = CB1 receptor (Mus musculus (Mouse), UniProt P47746); assay: [35S]GTPγS binding assay for CB1 receptor, mouse brain membranes; type: biochemical; settings: nature of binding: agonist/antagonist/inverse agonist
# Chain of CB1 receptor (P47746 whole entry): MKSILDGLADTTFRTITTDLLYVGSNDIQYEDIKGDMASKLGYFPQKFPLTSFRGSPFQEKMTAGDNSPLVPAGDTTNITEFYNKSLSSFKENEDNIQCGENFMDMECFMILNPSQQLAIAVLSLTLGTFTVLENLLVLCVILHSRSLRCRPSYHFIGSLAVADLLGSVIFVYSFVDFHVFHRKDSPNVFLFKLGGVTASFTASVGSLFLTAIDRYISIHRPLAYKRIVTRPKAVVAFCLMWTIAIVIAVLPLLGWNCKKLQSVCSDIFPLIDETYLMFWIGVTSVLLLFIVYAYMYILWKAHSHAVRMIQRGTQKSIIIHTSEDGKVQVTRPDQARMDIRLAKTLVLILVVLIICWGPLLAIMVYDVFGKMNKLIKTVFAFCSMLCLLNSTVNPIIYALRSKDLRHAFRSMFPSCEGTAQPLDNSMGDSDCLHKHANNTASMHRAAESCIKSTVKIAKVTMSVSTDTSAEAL
# Protocol: For CB1 receptor-mouse brains were dissected and P2 membranes prepared and resuspended at ˜2 μg protein/μL in 1 ml assay buffer (50 mM Tris HCl, 9 mM MgCl2, 0.2 mM EDTA, 150 mM NaCl; pH 7.4). Ligand-stimulated [^35S]GTPγS binding was assayed as described previously (Tam et al., JCI 2010). Briefly, membranes (10 μg protein) were incubated in assay buffer containing 100 μM GDP, 0.05 nM [^35S]GTPγS, test compounds at various concentrations (CP55940/Rimonabant as controls and test compounds for BB8 conjugates), and 1.4 mg/mL fatty acid-free BSA in siliconized glass tubes. Membranes with bound ligand ([^35S]GTPγS) were separated from free ligand by vacuum filtration and were analyzed using β counter as described above. Non-specific binding was determined using 10 μM GTPS (cold GTP). Basal binding was assayed in the absence of the tested compound and in the presence of GDP.
# mice = assay: Catalepsy test (bar test), WIN55,212-induced; type: in vivo; settings: single dose 20 mg/kg PO 30 min prior to WIN55,212 3 mg/kg IP
# Protocol: Catalepsy test: Catalepsy was assayed using the bar test. Briefly, mice were removed from their home cage, and their forepaws were placed on a horizontal bar, 0.5 cm in diameter, positioned 4 cm above the bench surface. Vehicle-treated mice routinely let go of the bar within 2 sec. Cataleptic behavior was defined as the time the animals remained motionless holding on to the bar, with an arbitrary cutoff of 30 sec. The antagonists were given 30 min before the IP injection of 3 mg/kg WIN55,212. The test was performed 60 min after agonist administration.
# [5] = male, C57BL/6J, mouse, in vivo, po, 10 mg/kg
structure (smiles),measurement,setting,value
"O=S(=O)(NC1CCCOc2c1nn(-c1ccccc1Cl)c2-c1ccc(Cl)cc1)c1ccc(Cl)cc1 (stereo not shown) [BNS808, 4-chloro-N-[2-(2-chlorophenyl)-3-(4-chlorophenyl)-5,6,7,8-tetrahydrooxepino[3,2-c]pyrazol-8-yl]benzenesulfonamide]",effect on HU210-induced hypomotility,"C57Bl/6J mice [1]; single dose 1, 10 mg/kg PO",apparent lack of effects
same,IC50,HepG2 Cells; read-out: Absolute IC50 (μM),26.2 µM
same,IC50,HepG2 Cells; read-out: Relative IC50 (μM),16.8 µM
same,locomotor activity (CNS-mediated hyperactivity),"C57Bl/6J mice [2]; single dose 1, 10 mg/kg PO",no locomotor effects
same,toxicity on AMES strains,[3],no toxicity
same,AMES result (positive/negative),"[3]; TA98, S9 no",negative
same,AMES result (positive/negative),"[3]; TA98, S9 yes",negative
same,increase in reversion over the negative control,[3],< 2 fold
same,AMES result (positive/negative),"[3]; TA100, S9 no",negative
same,AMES result (positive/negative),"[3]; TA100, S9 yes",negative
same,Liver/Plasma ratio,"[4]; 1 h post 10 mg/kg oral administration, C57BL/6J male mice",13.0
same,Kp at 1 h,"[4]; mouse, in vivo, 1 h post 10 mg/kg oral administration, C57BL/6J male mice, read-out: Brain/Plasma ratio",1.07
same,"Papp at 2.5 h, 2 μM",P-gp (MDR1),0.26 ×10⁻⁶ cm/s
"Cc1ccc(C)c(OCCCC(C)(C)C(=O)NC2CCCOc3c2nn(-c2ccccc2Cl)c3-c2ccc(Cl)cc2)c1 (stereo not shown) [BNS822, N-[2-(2-chlorophenyl)-3-(4-chlorophenyl)-5,6,7,8-tetrahydrooxepino[3,2-c]pyrazol-8-yl]-5-(2,5-dimethylphenoxy)-2,2-dimethyl-pentanamide]",effect on HU210-induced hypomotility,C57Bl/6J mice [1]; single dose 20 mg/kg PO,apparent lack of effects
same,IC50,HepG2 Cells; read-out: Absolute IC50,> 100 µM
same,IC50,HepG2 Cells; read-out: Relative IC50,> 100 µM
same,locomotor activity (CNS-mediated hyperactivity),C57Bl/6J mice [2]; single dose 20 mg/kg PO,no locomotor effects
same,toxicity on AMES strains,[3],no toxicity
same,AMES result (positive/negative),"[3]; TA98, S9 no",negative
same,AMES result (positive/negative),"[3]; TA98, S9 yes",negative
same,increase in reversion over the negative control,[3],< 2 fold
same,AMES result (positive/negative),"[3]; TA100, S9 no",negative
same,AMES result (positive/negative),"[3]; TA100, S9 yes",negative
same,mCB1R GTPγ[^35S] (activity),CB1 receptor,Antagonist
same,Kp at 1 h,[4]; [5],< 0.02
same,concentration at 1 h,[4]; [5],1.34 ng/g
same,Brain/Plasma ratio,"[4]; male, C57BL/6J, mouse, in vivo, po, 10 mg/kg, 1 h",<0.02
same,"WIN55,212-induced catalepsy",mice,did not block; also recorded: no effect

# Source: patent US20240189287A1, “PERIPHERALLY RESTRICTED CB1 RECEPTOR BLOCKERS AND USES THEREOF” (BIONANOSIM (BNS) LTD, priority 2021, published 2024)
